# Assay results taken from patent US5254726A, “No-carrier-added (NCA) aryl (18E) fluorides via the nucleophilic aromatic substitution of electron rich aromatic rings” (priority 1991, dated 1993).
# Entries after “also recorded” stand apart in the source; their conditions may differ. Where two headings read alike, the source gives them in different places.
# Columns and labels:
# [1] = test system: adrenergic nerve terminals; conditions: cited from earlier work; for neuronal uptake and storage: literature
# vesicular transporter = conditions: Matthaei et al. 1988; cited from earlier work
# [2] = test system: baboon mycocardium (left ventricular wall and septum); test: PET study of baboon heart after injection of racemic 6-[^18 F]FNE; type: in vivo, baboon (Papio anubis)
# Procedure: (§1) FIG. 8 is a time-activity curve for F-18 in the baboon mycocardium (left ventricular wall and septum) after injection of 5 mCi of racemic 6-[^18 F]FNE. FIG. 9 is a graph showing plasma clearance of F-18 in the baboon after injection of racemic 6-[^18 F]FNE. […] Radioactivity remained at 0.032% of the peak activity by 120 minutes post injection. The ratio of myocardium to plasma was 7 at 5 minutes and 11.2 at 135 minutes. The experiment was carried out as follows:
# (§2) Adult female baboons were anesthetized and prepared for PET studies as described by Dewey et al., Synapse, 5, 213 (1990) the description of which is incorporated by reference herein. A solution of racemic 6-[^18 F]FNE (5 mCi, 0.4 μg) in 3 mL of saline was injected intravenously. Scanning was performed for 140 minutes in a Computer Technology Imaging (CTI) positron tomograph (model 931-08/12; 15 slice, 6.5-mm slice thickness, full width at half maximum (FWHM) with an in-plane resolution of 6.0×6.0 mm (FWHM). The following scanning protocol was used: ten 30-s scans, followed by five 60-s scans, followed by ten 5-minute scans, followed by eight 10-minute scans. In every case, an initial transmission scan was performed 2.0 minutes prior to radiotracer injection in order to determine the proper position of the animal in the gantry. Upon completion of this scan, adjustments in position were made as necessary and a regular transmission scan (10 minutes) was performed in order to correct for the attenuation of the annihilation photons. The tomograph was cross calibrated with the well-counter used for the measurement of radioactivity in the plasma samples. A rectilinear scan was performed by placing the baboon's head in the gantry and moving through the rostral caudal extent of the animal (10-mm increments) to include the bladder at the most caudal level. Scanning was performed for 1.5 minutes at each position. Vital signs including heart and respiratory rate were monitored and recorded throughout the length of the study.
# The time-activity curve for F-18 after the injection of 6-[^18 F]FNE was generated from a region of interest over the left ventricular wall and the septum. Immediately following completion of the dynamic acquisition, a rectilinear scan (qualitative) was performed beginning at the head and continuing throughout the rostral-caudal extent of the trunk.
# [3] = Plasma/blood clearance of F-18 in the baboon; type: in vivo, baboon (Papio anubis); conditions: racemic, 5 mCi i.v.
# Procedure: as §1
# Adult female baboons were anesthetized and prepared for PET studies as described by Dewey et al., Synapse, 5, 213 (1990) the description of which is incorporated by reference herein. A solution of racemic 6-[^18 F]FNE (5 mCi, 0.4 μg) in 3 mL of saline was injected intravenously. […] The tomograph was cross calibrated with the well-counter used for the measurement of radioactivity in the plasma samples. […] Vital signs including heart and respiratory rate were monitored and recorded throughout the length of the study.
# [4] = parameters: species or system baboon (Papio anubis); conditions: in vivo
# Procedure: as §2, with “A rectilinear scan was performed by placing the baboon's head in the gantry and moving through the rostral caudal extent of the animal (10-mm increments) to include the bladder at the most caudal level. Scanning was performed for 1.5 minutes at each position.” left out, “study. […]” for “study.”
# [5] = Vital signs including heart and respiratory rate during PET study; type: in vivo, baboon (Papio anubis); conditions: at any time during the study; 5 mCi, 0.4 μg i.v.
# Procedure: as §2, with “A rectilinear scan was performed by placing the baboon's head in the gantry and moving through the rostral caudal extent of the animal (10-mm increments) to include the bladder at the most caudal level. Scanning was performed for 1.5 minutes at each position.” left out, “study. […]” for “study.”
# dopamine β-hydroxylase [6] = type: biochemical; conditions: pH 5.7, 30° C.; for product formed by dopamine β-hydroxylase: substrate incubation, chiral HPLC
# Procedure: Two enzyme incubations, with dopamine and 6-fluorodopamine, respectively, were performed simultaneously, as follows:
# 12(a) Dopamine Hydroxylation. A mixture of 0.5 mg of dopamine, potassium phosphate buffer (0.3 mL, pH 5.7), 0.5M ascorbic acid (0.02 mL, pH 5.7), 1M sodium formate (0.05 mL), and dopamine β-hydroxylase solution (0.05 mL) was stirred in a closed vial at 30° C. The cap was removed and the vial was shaken periodically. An aliquot (ca. 1 μL) was withdrawn and subjected to chiral HPLC analysis as the reaction progressed. HPLC conditions were as follows: Crownpak CR (+) columns, 15×0.46 cm, 254 nm, 0.02M HClO4, 0.7 mL/min.
# 12(b) 6-Fluorodopamine Hydroxylation. The same procedure was used as described in 12(a), except 0.4 mg of 6-fluorodopamine, kindly provided by Dr. Kenneth Kirk at the National Institutes of Health, was used as a substrate.
# Radiat. Isot., 41, 463 (1990) the disclosure of which is incorporated by reference herein, for [^11 C]octopamine enantiomers when a Crownpak CR(+) HPLC column was used.
# dopamine β-hydroxylase [7] = conditions: Levin et al. 1960; Goldstein et al. 1962; cited from earlier work
# dog heart = conditions: Wieland et al. 1990, Rosenspire et al. 1989; cited from earlier work
# human heart = conditions: Schwaiger et al. 1990, Kopin 1990; cited from earlier work
# [8] = tracers administered in vivo; Goldstein et al. 1990, Mislankar et al. 1988; cited from earlier work
# [9] = literature; cited from earlier work
compound,measurement,setting,value
NC[C@H](O)c1ccc(O)c(O)c1 [norepinephrine],stereoselectivity of neuronal uptake,[1]; Matthaei et al. 1988,not stereoselective
same,stereoselectivity for vesicular transporter,vesicular transporter,only the levorotatory enantiomer serves as a substrate for the vesicular transporter
"NCC(O)c1cc(O)c(O)cc1[18F] (racemic) [racemic 6-[^18 F]FNE, 6-[^18 F]fluoronorepinephrine]",peak concentration of F-18 in myocardium,"[2]; 10 minutes post injection, 5 mCi racemic, i.v.",0.042 % of the injected does/cc
same,ratio of myocardium to plasma,"[2]; at 5 minutes, 5 mCi i.v.",7
same,ratio of myocardium to plasma,"[2]; at 135 minutes, 5 mCi i.v.",11.2
same,uptake and retention/clearance of F-18 in the baboon heart,"[2]; racemic, 5 mCi i.v.",high uptake and retention; also recorded: high uptake and a slow clearance
same,clearance from blood,[3],rapid clearance from blood
same,distribution of radioactivity,[4],"Radioactivity was distributed in the parotid glands, the heart, liver, and bladder"
same,change in vital signs,[5],no change in vital signs
NCCc1ccc(O)c(O)c1 [dopamine],time to appearance of (-)-NE peak,dopamine β-hydroxylase [6]; dopamine as substrate,less than 1 hour
same,product formed by dopamine β-hydroxylase,dopamine β-hydroxylase [6],(+)-NE was not observed
same,enantiospecific conversion by dopamine β-hydroxylase,dopamine β-hydroxylase [7],enantiospecifically convert dopamine to (-)-norepinephrine
NCCc1cc(O)c(O)cc1F [6-fluorodopamine],product formed by dopamine β-hydroxylase,dopamine β-hydroxylase [6],a new HPLC peak at 18 minutes appeared
same,neuronal uptake and storage,[1],"share the same presynaptic mechanisms for the uptake, storage, and synthesis as the parent molecules"
C[C@H](N)[C@H](O)c1cc(O)ccc1[18F] [[^18 F]fluorometaraminol],neuronal uptake and storage,[1],share the same uptake and storage mechanisms as norepinephrine
same,images of the neuronal distribution,dog heart,excellent images
same,images of the neuronal distribution,human heart,excellent images
same,vasoactivity / hemodynamic effects,[8],hemodynamic effects
same,metabolic stability,[9],metabolically stable
NCC(O)c1cc(O)c(O)cc1F (racemic) [6-fluoronorepinephrine],neuronal uptake and storage,[1],"share the same presynaptic mechanisms for the uptake, storage, and synthesis as the parent molecules"
same,neuronal uptake and storage,[1]; listed as racemic 6-fluoronorepinephrine,taken up and stored by adrenergic nerve terminals
C[C@H](N[11CH3])[C@H](O)c1cccc(O)c1 [[^11 C]m-hydroxyephedrine],neuronal uptake and storage,[1],share the same uptake and storage mechanisms as norepinephrine
same,images of the neuronal distribution,dog heart,excellent images
same,images of the neuronal distribution,human heart,excellent images
same,metabolic stability,[9],metabolically stable
"NCCc1cc(O)c(O)cc1[18F] [[^18 F]dopamine, 6-[^18 F]fluorodopamine]",vasoactivity / hemodynamic effects,[8],hemodynamic effects
